The values that follow come from publication PMC10477861, “Efficient Mining of Anticancer Peptides from Gut Metagenome” (Advanced Science, 2023).

Holding throughout (conditions): 25 µM pACP, 24 h, maintenance medium 1% FBS, ratio of viability to vehicle (PBS), at least three technical repetitions
The test system of experiment [1] is SK-BR-3. As to the kind of experiment: MTT primary screening of anticancer activity, SK-BR-3. It is filed as cell-based. The gist of the method: (§1)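 MTT read-out of cell survival after a 24 h peptide exposure at 25 µM final c[…]ntration. Medium was switched to 1% FBS maintenance medium at treatment, with cultures at 60% confluence.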
Experiment [2] relates to MDA-MB-453. As to the kind of experiment: MTT primary screening of anticancer activity, MDA-MB-453. It counts as cell-based. The gist of the method: as §1
Experiment [3] relates to MDA-MB-436. Nature of the experiment: MTT primary screening of anticancer activity, MDA-MB-436. It counts as cell-based. The gist of the method:
as §1

Experiment [4] deals with HT29. As to the kind of experiment: MTT primary screening of anticancer activity, HT29. It is filed as cell-based, Human. Put shortly: as §1
The test system of experiment [5] is HCT116. Nature of the experiment: MTT primary screening of anticancer activity, HCT116. It counts as cell-based, Human. Put shortly: as §1
The subject of experiment [6] is BT474. As to the kind of experiment: MTT primary screening of anticancer activity, BT474. It is filed as cell-based. Put shortly: as §1
Experiment [7] has as its system Caco2. As to the kind of experiment: MTT primary screening of anticancer activity, Caco2. It counts as cell-based, Human. Put shortly:
as §1

In experiment [8] the test system is T47D. As to the kind of experiment: MTT primary screening of anticancer activity, T47D. It counts as cell-based. The gist of the method:
as §1

The subject of experiment [9] is MCF7. Nature of the experiment: MTT primary screening of anticancer activity, MCF7. It is filed as cell-based. The gist of the method:
as §1

Experiment [10] relates to B16. Nature of the experiment: MTT primary screening of anticancer activity, B16. It counts as cell-based, Mouse. The gist of the method:
as §1

Experiment [11] concerns EFM192A. Nature of the experiment: MTT primary screening of anticancer activity, EFM192A. It counts as cell-based. Put shortly:
as §1

Experiment [12] has as its system MDA-MB-231. Nature of the experiment: MTT primary screening of anticancer activity, MDA-MB-231. It counts as cell-based. The gist of the method:
as §1

Experiment [13] has as its system CT26. Nature of the experiment: MTT primary screening of anticancer activity, CT26. It is filed as cell-based, Murine. The gist of the method:
as §1

Experiment [14] deals with Hela. Nature of the experiment: MTT primary screening of anticancer activity, Hela. It is filed as cell-based, Human. Put shortly: as §1
The subject of experiment [15] is LCC. Nature of the experiment: MTT primary screening of anticancer activity, LCC. It counts as cell-based. The gist of the method:
as §1

The test system of experiment [16] is MDA-MB-468. Nature of the experiment: MTT primary screening of anticancer activity, MDA-MB-468. It counts as cell-based. The gist of the method:
as §1

Turning to “NTGGIQKIQPLRKTDPLLAPCVSGRIGCPGRRCS [pACP1412]”, the “Survival rate of cancer cells in primary screening” value (from here on “Survival rate of cancer cells”) in experiment [1], in experiment [2], in experiment [3], in experiment [4], in [5] and in experiment [6] was 1.00 in each case. Further, the “Survival rate of cancer cells” value came out at 1.00 in experiment [7]; 0.74 in experiment [8]; 1.00 in [9]; 0.80 in experiment [10]; 1.00 in [11]; 1.00 in experiment [12]. The “Survival rate of cancer cells” value in experiment [13], in [14], in experiment [15] and in experiment [16] was 1.00 each time.

Turning to “PPSTRIISKVYPFKKHARGGWAIPGMMCSQMVER [pACP1472]”, the “Survival rate of cancer cells” value in [1], in [2], in experiment [3], in experiment [4], in [5] and in [6] was 1.00 throughout. Also, the “Survival rate of cancer cells” value in [7], in experiment [8], in experiment [9], in experiment [10], in experiment [11] and in experiment [12] was 1.00 throughout. Moreover, the “Survival rate of cancer cells” value was 1.00 in experiment [13], 1.00 in experiment [14], 1.00 in [15] and 0.76 in [16].

With “PVCRKEKKDGKRCVARYVEHFAGKDRRMQA [pACP1505]”, the “Survival rate of cancer cells” value in experiment [1], in experiment [2], in [3], in experiment [4], in [5] and in experiment [6] was 1.00 in each case. The “Survival rate of cancer cells” value is reported as 1.00 in experiment [7]; 0.76 in experiment [8]; 1.00 in experiment [9]; 0.78 in experiment [10]; 1.00 in experiment [11]; 1.00 in experiment [12]. In addition, the “Survival rate of cancer cells” value in experiment [13], in experiment [14], in experiment [15] and in experiment [16] was 1.00 in each case.

Turning to QESDAKKYGVGGYFQGLLSQ [pACP1529], the “Survival rate of cancer cells” value in experiment [1], in experiment [2], in experiment [3], in experiment [4], in experiment [5] and in experiment [6] was 1.00 throughout. The “Survival rate of cancer cells” value in experiment [7] was 1.00; in experiment [8], 0.75; in experiment [9], 1.00; in [10] it was 1.00; in [11] it was 1.00; in [12], 1.00. For the same sequence, the “Survival rate of cancer cells” value in experiment [13], in [14], in experiment [15] and in experiment [16] was 1.00 in each case.

As to “RCPCKGNTHRRYSIMFCNFDCASLLKLLCGFFGKC [pACP1621]”, the “Survival rate of cancer cells” value in [1], in [2], in [3], in [4], in experiment [5] and in experiment [6] was 1.00 in each case. Besides, the “Survival rate of cancer cells” value in [7] was 1.00; in [8], 0.72; in experiment [9], 1.00; in [10] it was 0.79; in experiment [11], 0.79; in [12], 1.00. For the same sequence, the “Survival rate of cancer cells” value in [13], in experiment [14], in [15] and in experiment [16] was 1.00 throughout.

Turning to “RLIVRMKTLYEKAAQMEIKIVENRFTRHEKKNKINRIKRKREK [pACP1722]”, the “Survival rate of cancer cells” value in experiment [1] turned out to be 0.63; in experiment [2] it was 0.11; in experiment [3], 0.27; in experiment [4], 0.63; in experiment [5], 1.00; in experiment [6], 0.14. In addition, the “Survival rate of cancer cells” value in experiment [7] was found to be 0.70; in experiment [8] it was 0.29; in [9], 0.31; in experiment [10], 0.56; in experiment [11], 1.00; in experiment [12] it was 1.00. Moreover, the “Survival rate of cancer cells” value was 0.35 in experiment [13], 0.13 in [14], 1.00 in experiment [15] and 1.00 in experiment [16].

As to “RLRPVILCKKRRLAAGRKKVGRQKKRKASAEGKEGRSPKKKKDGCW [pACP1739]”, the “Survival rate of cancer cells” value in experiment [1] is 0.53; in experiment [2], 0.18; in experiment [3], 0.51; in experiment [4], 1.00; in experiment [5], 1.00; in experiment [6], 0.21. Besides, the “Survival rate of cancer cells” value is recorded as 1.00 in experiment [7]; 0.40 in [8]; 0.28 in experiment [9]; 1.00 in [10]; 1.00 in [11]; 1.00 in experiment [12]. In addition, the “Survival rate of cancer cells” value is on record as 1.00 in experiment [13], 0.16 in experiment [14], 1.00 in [15] and 0.39 in experiment [16].
